Results from patent publication EP2818471A1, “Nitrogen bicyclic compounds as inhibitors for Scyl1 and Grk5” (Max-Planck-Gesellschaft zur Förderung der Wissenschaften …, priority 2013, dated 2014).

tested on: beta-TC6 cells; test: Insulin HTRF assay, relative activity Ar normalized to sunitinib; assay type: cell-based; conditions: Mus musculus, normalized to positive control sunitinib (5 µM = 100%), Table 10
Outline: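 beta-TC6 cells (15k/well) were seeded for 24 or 48 h, washed and exposed to test compound or sunitinib (5 µM f.c.) in induction buffer with 0.5% DMSO for 2, 3 or 4 h at 37°C. Secreted insulin in the supernatant was measured by two-antibody HTRF after 120 min at RT. Ar = (V − 0% control)/(100% control − 0% control) × 100.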

Compound	Emax [%]
CC(C)N1CCN(c2ccc(-c3cn4c(-c5ccc(O)cc5)cnc4cn3)cc2)CC1 [compound 325, 4-[6-[4-(4-isopropylpiperazin-1-yl)phenyl]imidazo[1,2-a]pyrazin-3-yl]phenol]	20 to 50
O=C(NC1CC1)c1ccc(-c2cn3c(-c4ccc(O)cc4)cnc3cn2)cc1 [compound 326, N-cyclopropyl-4-[3-(4-hydroxyphenyl)imidazo[1,2-a]pyrazin-6-yl]benzamide]	20 to 50
Cn1cc(-c2cn3c(-c4ccc(O)cc4)cnc3cn2)cn1 [compound 327, 4-[6-(1-methylpyrazol-4-yl)imidazo[1,2-a]pyrazin-3-yl]phenol]	20 to 50
CCOc1cccc(-c2cn3c(-c4ccc(CCC(=O)O)cc4)cnc3cn2)c1 [compound 328, 3-[4-[6-(3-ethoxyphenyl)imidazo[1,2-a]pyrazin-3-yl]phenyl]propanoic acid]	≥ 100
O=C(O)CCc1ccc(-c2cnc3cnc(-c4cccc(Cl)c4)cn23)cc1 [compound 329, 3-[4-[6-(3-chlorophenyl)imidazo[1,2-a]pyrazin-3-yl]phenyl]propanoic acid]	20 to 50
Cc1ccccc1-c1cn2c(-c3ccc(CCC(=O)O)cc3)cnc2cn1 [compound 330, 3-[4-[6-(o-tolyl)imidazo[1,2-a]pyrazin-3-yl]phenyl]propanoic acid]	20 to 50
O=C(O)CCc1ccc(-c2cnc3cnc(-c4ccccc4Cl)cn23)cc1 [compound 331, 3-[4-[6-(2-chlorophenyl)imidazo[1,2-a]pyrazin-3-yl]phenyl]propanoic acid]	50 to 100
O=C(O)CCc1ccc(-c2cnc3cnc(-c4cccs4)cn23)cc1 [compound 332, 3-[4-[6-(2-thienyl)imidazo[1,2-a]pyrazin-3-yl]phenyl]propanoic acid]	20 to 50
O=C(O)CCc1ccc(-c2cnc3cnc(-c4ccccc4CO)cn23)cc1 [compound 333, 3-[4-[6-[2-(hydroxymethyl)phenyl]imidazo[1,2-a]pyrazin-3-yl]phenyl]propanoic acid]	20 to 50
Cc1cccc(-c2cn3c(-c4ccc(CCC(=O)O)cc4)cnc3cn2)c1C [compound 334, 3-[4-[6-(2,3-dimethylphenyl)imidazo[1,2-a]pyrazin-3-yl]phenyl]propanoic acid]	50 to 100
N#Cc1ccc(-c2cnc3cnc(-c4ccccc4)cn23)cc1 [compound 335, 4-(6-phenylimidazo[1,2-a]pyrazin-3-yl)benzonitrile]	20 to 50
N#Cc1ccc(-c2cnc3cnc(-c4ccsc4)cn23)cc1 [compound 336, 4-[6-(3-thienyl)imidazo[1,2-a]pyrazin-3-yl]benzonitrile]	20 to 50
N#Cc1ccc(-c2cnc3cnc(-c4ccc(Cl)cc4)cn23)cc1 [compound 337, 4-[6-(4-chlorophenyl)imidazo[1,2-a]pyrazin-3-yl]benzonitrile]	50 to 100
N#Cc1ccc(-c2cnc3cnc(-c4ccc(CO)cc4)cn23)cc1 [compound 338, 4-[6-[4-(hydroxymethyl)phenyl]imidazo[1,2-a]pyrazin-3-yl]benzonitrile]	20 to 50
N#Cc1ccc(-c2cnc3cnc(-c4cccs4)cn23)cc1 [compound 339, 4-[6-(2-thienyl)imidazo[1,2-a]pyrazin-3-yl]benzonitrile]	20 to 50
COc1cc(-c2cnc3cnc(-c4ccc(N5CCN(C)CC5)nc4)cn23)cc(OC)c1OC [compound 340, 6-[6-(4-methylpiperazin-1-yl)-3-pyridyl]-3-(3,4,5-trimethoxyphenyl)imidazo[1,2-a]pyrazine]	20 to 50
CN(C)c1cccc(-c2cnc3cnc(-c4ccncc4)cn23)c1 [compound 342, N,N-dimethyl-3-[6-(4-pyridyl)imidazo[1,2-a]pyrazin-3-yl]aniline]	20 to 50
CN(C)c1cccc(-c2cnc3cnc(-c4ccsc4)cn23)c1 [compound 343, N,N-dimethyl-3-[6-(3-thienyl)imidazo[1,2-a]pyrazin-3-yl]aniline]	50 to 100
CN(C)c1cccc(-c2cnc3cnc(-c4ccc(CO)cc4)cn23)c1 [compound 344, [4-[3-[3-(dimethylamino)phenyl]imidazo[1,2-a]pyrazin-6-yl]phenyl]methanol]	20 to 50
CN(C)c1cccc(-c2cnc3cnc(-c4cccs4)cn23)c1 [compound 345, N,N-dimethyl-3-[6-(2-thienyl)imidazo[1,2-a]pyrazin-3-yl]aniline]	20 to 50
COc1cc(OC)cc(-c2cn3c(-c4cccc(N(C)C)c4)cnc3cn2)c1 [compound 346, 3-[6-(3,5-dimethoxyphenyl)imidazo[1,2-a]pyrazin-3-yl]-N,N-dimethyl-aniline]	20 to 50
Clc1ccc(-c2cnc3cnc(-c4ccncc4)cn23)cc1 [compound 347, 3-(4-chlorophenyl)-6-(4-pyridyl)imidazo[1,2-a]pyrazine]	20 to 50
Clc1ccc(-c2cnc3cnc(-c4ccsc4)cn23)cc1 [compound 348, 3-(4-chlorophenyl)-6-(3-thienyl)imidazo[1,2-a]pyrazine]	50 to 100

Compound	Emax [%]
Clc1ccc(-c2cnc3cnc(-c4cccs4)cn23)cc1 [compound 349, 3-(4-chlorophenyl)-6-(2-thienyl)imidazo[1,2-a]pyrazine]	20 to 50
CC(=O)Nc1cccc(-c2cn3c(-c4ccc(F)c(Cl)c4)cnc3cn2)c1 [compound 350, N-[3-[3-(3-chloro-4-fluoro-phenyl)imidazo[1,2-a]pyrazin-6-yl]phenyl]acetamide]	20 to 50
Fc1ccc(-c2cnc3cnc(-c4ccco4)cn23)cc1Cl [compound 351, 3-(3-chloro-4-fluoro-phenyl)-6-(2-furyl)imidazo[1,2-a]pyrazine]	20 to 50
FC(F)(F)Oc1cccc(-c2cnc3cnc(-c4cccnc4)cn23)c1 [compound 352, 6-(3-pyridyl)-3-[3-(trifluoromethoxy)phenyl]imidazo[1,2-a]pyrazine]	20 to 50
O=C(NCCO)c1cccc(-c2cn3c(-c4cccc(OC(F)(F)F)c4)cnc3cn2)c1 [compound 353, N-(2-hydroxyethyl)-3-[3-[3-(trifluoromethoxy)phenyl]imidazo[1,2-a]pyrazin-6-yl]benzamide]	20 to 50
CN1CCN(C(=O)c2cccc(-c3cnc4cnc(-c5ccc6c(c5)OCO6)cn34)c2)CC1 [compound 355, [3-[6-(1,3-benzodioxol-5-yl)imidazo[1,2-a]pyrazin-3-yl]phenyl]-(4-methylpiperazin-1-yl)methanone]	20 to 50
CN1CCN(C(=O)c2cccc(-c3cnc4cnc(-c5ccc6c(ccn6C)c5)cn34)c2)CC1 [compound 358, [3-[6-(1-methylindol-5-yl)imidazo[1,2-a]pyrazin-3-yl]phenyl]-(4-methylpiperazin-1-yl)methanone]	20 to 50
CN1CCN(C(=O)c2cccc(-c3cnc4cnc(-c5ccc(CNc6ccccc6)cc5)cn34)c2)CC1 [compound 359, [3-[6-[4-(anilinomethyl)phenyl]imidazo[1,2-a]pyrazin-3-yl]phenyl]-(4-methylpiperazin-1-yl)methanone]	10 to 20
OCc1ccc(-c2cn3c(-c4cccc(Cl)c4)cnc3cn2)cc1 [compound 360, [4-[3-(3-chlorophenyl)imidazo[1,2-a]pyrazin-6-yl]phenyl]methanol]	20 to 50
COc1ccc(-c2cnc3cnc(-c4ccc(CO)cc4)cn23)cc1 [compound 361, [4-[3-(4-methoxyphenyl)imidazo[1,2-a]pyrazin-6-yl]phenyl]methanol]	50 to 100
COc1ccc(-c2cnc3cnc(-c4cccs4)cn23)cc1 [compound 362, 3-(4-methoxyphenyl)-6-(2-thienyl)imidazo[1,2-a]pyrazine]	20 to 50
COc1ccc(-c2cnc3cnc(-c4ccc(N)nc4)cn23)cc1 [compound 363, 5-[3-(4-methoxyphenyl)imidazo[1,2-a]pyrazin-6-yl]pyridin-2-amine]	20 to 50
Oc1cccc(-c2cnc3cnc(-c4cc5ccccc5s4)cn23)c1 [compound 364, 3-[6-(benzothiophen-2-yl)imidazo[1,2-a]pyrazin-3-yl]phenol]	50 to 100
Oc1cccc(-c2cnc3cnc(-c4ccc(Cl)cc4)cn23)c1 [compound 365, 3-[6-(4-chlorophenyl)imidazo[1,2-a]pyrazin-3-yl]phenol]	20 to 50
Oc1cccc(-c2cnc3cnc(/C=C/c4ccccc4)cn23)c1 [compound 366, 3-[6-[(E)-styryl]imidazo[1,2-a]pyrazin-3-yl]phenol]	20 to 50
CN1CCN(c2ccc(-c3cn4c(-c5cccc(O)c5)cnc4cn3)cc2)CC1 [compound 367, 3-[6-[4-(4-methylpiperazin-1-yl)phenyl]imidazo[1,2-a]pyrazin-3-yl]phenol]	20 to 50
Oc1cccc(-c2cnc3cnc(-c4cccc(Cl)c4)cn23)c1 [compound 368, 3-[6-(3-chlorophenyl)imidazo[1,2-a]pyrazin-3-yl]phenol]	20 to 50
COc1ccc(-c2cn3c(-c4cccc(O)c4)cnc3cn2)cn1 [compound 369, 3-[6-(6-methoxy-3-pyridyl)imidazo[1,2-a]pyrazin-3-yl]phenol]	20 to 50
Oc1cccc(-c2cnc3cnc(-c4cccs4)cn23)c1 [compound 370, 3-[6-(2-thienyl)imidazo[1,2-a]pyrazin-3-yl]phenol]	20 to 50
COc1cc(OC)cc(-c2cn3c(-c4cccc(O)c4)cnc3cn2)c1 [compound 371, 3-[6-(3,5-dimethoxyphenyl)imidazo[1,2-a]pyrazin-3-yl]phenol]	20 to 50
COc1cccc(-c2cn3c(-c4cccc(O)c4)cnc3cn2)c1F [compound 372, 3-[6-(2-fluoro-3-methoxy-phenyl)imidazo[1,2-a]pyrazin-3-yl]phenol]	20 to 50
OCc1ccc(-c2cnc3cnc(-c4ccco4)cn23)cc1 [compound 373, [4-[6-(2-furyl)imidazo[1,2-a]pyrazin-3-yl]phenyl]methanol]	20 to 50
OCc1ccc(-c2cnc3cnc(-c4ccc(Cl)cc4Cl)cn23)cc1 [compound 374, [4-[6-(2,4-dichlorophenyl)imidazo[1,2-a]pyrazin-3-yl]phenyl]methanol]	20 to 50
